The compounds below were run against T1, GPR6 receptor expressed in CHO-K1 cells (Homo sapiens, UniProt P46095) (assay: In vitro inhibition of cAMP (EC50), cell-based HTRF cAMP assay). Details: inhibition of constitutive cAMP activity of GPR6 in CHO-K1 cells.
T1 construct: expressed in transfected cells
Procedure, shortened: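 Tetracycline-inducible CHO-K1 line, GPR6 expression induced 20 h with 2 μg/mL doxycycline. Compounds incubated 45 min at 37 °C in Ringer's buffer (pH 7.4) with 0.5% fatty acid free BSA and 300 μM IBMX. Constitutive cAMP read by Lance HTRF; EC50 from four-parameter logistic fit.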

T1 sequence (P46095 whole entry): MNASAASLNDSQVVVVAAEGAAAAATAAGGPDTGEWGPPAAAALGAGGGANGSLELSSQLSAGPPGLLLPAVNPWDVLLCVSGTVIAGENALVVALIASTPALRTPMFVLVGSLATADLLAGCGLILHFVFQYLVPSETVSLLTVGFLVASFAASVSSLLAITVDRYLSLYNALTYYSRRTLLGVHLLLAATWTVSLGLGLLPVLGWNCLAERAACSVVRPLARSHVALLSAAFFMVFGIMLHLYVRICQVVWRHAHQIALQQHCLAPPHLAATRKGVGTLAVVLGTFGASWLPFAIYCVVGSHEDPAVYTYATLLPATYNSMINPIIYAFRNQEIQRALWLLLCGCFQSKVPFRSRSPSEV

SMILES	pEC50, in vitro inhibition of cAMP
COc1cccc(CN2CCN(c3ncc(C#N)cc3NC(=O)c3cn(C)nc3OC)CC2)c1 [Example 156, N-(5-cyano-2-(4-(3-methoxybenzyl)piperazin-1-yl)pyridin-3-yl)-3-methoxy-1-methyl-1H-pyrazole-4-carboxamide]	6.4
N#Cc1ccc(N2CCC(Oc3ccc(F)cc3F)CC2)c(NC(=O)c2cc3cccn3cn2)c1 [Example 48, N-(5-cyano-2-(4-(2,4-difluorophenoxy)piperidin-1-yl)phenyl)pyrrolo[1,2-c]pyrimidine-3-carboxamide]	6.8
COc1c(C)cc(Cl)cc1C(=O)Nc1cc(C#N)ccc1N1CCC(Oc2ccc(F)cc2F)CC1 [Example 195]	5.9
COc1cncc(C(=O)Nc2cc(C#N)ccc2N2CCC(Oc3ccc(F)cc3F)CC2)n1 [Example 129, N-(5-cyano-2-(4-(2,4-difluorophenoxy)piperidin-1-yl)phenyl)-6-methoxypyrazine-2-carboxamide]	7.2
Cn1cccc(C(=O)Nc2cc(C#N)ccc2N2CCC([C@@H](F)c3ccc(F)cc3F)CC2)c1=O [Example 85, (R)—N-(5-cyano-2-(4-((2,4-difluorophenyl)fluoromethyl)piperidin-1-yl)phenyl)-1-methyl-2-oxo-1,2-dihydropyridine-3-carboxamide]	7.2
COc1c(C(=O)Nc2cc(C#N)ccc2N2CCC(Oc3ccc(F)cc3F)CC2)nnn1Cc1ccccc1 [Example 220, 1-benzyl-N-(5-cyano-2-(4-(2,4-difluorophenoxy)piperidin-1-yl)phenyl)-5-methoxy-1H-1,2,3-triazole-4-carboxamide]	5.8
CN(C)C(=O)Cn1cccc(C(=O)Nc2cc(C#N)ccc2N2CCC(Oc3ccc(F)cc3F)CC2)c1=O [Example 204, N-(5-cyano-2-(4-(2,4-difluorophenoxy)piperidin-1-yl)phenyl)-1-(2-(dimethylamino)-2-oxoethyl)-2-oxo-1,2-dihydropyridine-3-carboxamide]	4.9
COc1ncccc1C(=O)Nc1cc(C#N)ccc1N1CCN(Cc2cccc(F)c2)CC1 [Example 240, N-(5-cyano-2-(4-(3-fluorobenzyl)piperazin-1-yl)phenyl)-2-methoxynicotinamide]	6.8
Cc1nc(C(=O)Nc2cc(C#N)ccc2N2CCC(Oc3ccc(F)cc3F)CC2)cs1 [Example 105]	7.0
COc1nn(C)cc1C(=O)Nc1cc(C#N)cnc1N1CCN(Cc2ccc(F)c(C#N)c2)CC1 [Example 154, N-(5-cyano-2-(4-(3-cyano-4-fluorobenzyl)piperazin-1-yl)pyridin-3-yl)-3-methoxy-1-methyl-1H-pyrazole-4-carbonamide]	6.5
Cc1nc(C(=O)Nc2cc(C#N)ccc2N2CCC(Oc3ccc(F)cc3F)CC2)co1 [Example 43, N-(5-cyano-2-(4-(2,4-difluorophenoxy)piperidin-1-yl)phenyl)-2-methyloxazole-4-carboxamide]	6.1
COc1nn(C)cc1C(=O)Nc1cc(C#N)cnc1N1CCN(Cc2cc(C#N)ccc2F)CC1 [Example 151, N-(5-cyano-2-(4-(5-cyano-2-fluorobenzyl)piperazin-1-yl)pyridin-3-yl)-3-methoxy-1-methyl-1H-pyrazole-4-carboxamide]	6.3
COCc1cnc(N2CCC(Oc3ccc(F)cc3F)CC2)c(NC(=O)c2cccnc2OC)c1 [Example 65, N-(2-(4-(2,4-difluorophenoxy)piperidin-1-yl)-5-(methoxymethyl)pyridin-3-yl)-2-methoxynicotinamide]	7.3
N#Cc1ccc(N2CCC(Oc3ccc(F)cc3F)CC2)c(NC(=O)c2cnn3c2OCCC3)c1 [Example 53, N-(5-cyano-2-(4-(2,4-difluorophenoxy)piperidin-1-yl)phenyl)-6,7-dihydro-5H-pyrazolo[5,1-b][1,3]oxazine-3-carboxamide]	6.3
COc1cccc(F)c1C(=O)Nc1cc(S(C)(=O)=O)ccc1N1CCC(Oc2ccc(F)cc2F)CC1 [Example 11]	6.7
COc1cc(N2CCC(Oc3ccc(F)cc3F)CC2)c(NC(=O)c2cnccc2OC)cn1 [Example 21, N-(4-(4-(2,4-difluorophenoxy)piperidin-1-yl)-6-methoxypyridin-3-yl)-4-methoxynicotinamide]	7.4
Cn1ncc2ccc(NC(=O)c3ccccn3)c(N3CCC(Oc4ccc(F)cc4F)CC3)c21 [Example 77, N-(7-(4-(2,4-difluorophenoxy)piperidin-1-yl)-1-methyl-1H-indazol-6-yl)picolinamide]	<5.7
Cn1cccc(C(=O)Nc2cc(C#N)ccc2N2CCC([C@H](F)c3ccc(F)cc3F)CC2)c1=O [Example 84, (S)—N-(5-cyano-2-(4-((2,4-difluorophenyl)fluoromethyl)piperidin-1-yl)phenyl)-1-methyl-2-oxo-1,2-dihydropyridine-3-carboxamide]	6.6

SMILES	pEC50, in vitro inhibition of cAMP
N#Cc1ccc(N2CCC(Oc3ccc(F)cc3F)CC2)c(NC(=O)c2ccccc2O)c1 [Example 275, N-(5-cyano-2-(4-(2,4-difluorophenoxy)piperidin-1-yl)phenyl)-2-hydroxybenzamide]	6.5
N#Cc1ccc(N2CCC(Oc3ccc(F)cc3F)CC2)c(NC(=O)c2cccn(C3CCCCC3)c2=O)c1 [Example 180, N-(5-cyano-2-(4-(2,4-difluorophenoxy)piperidin-1-yl)phenyl)-1-cyclohexyl-2-oxo-1,2-dihydropyridine-3-carboxamide]	5.8
COc1ncccc1C(=O)Nc1cnc(C(=O)NC(C)C)cc1N1CCC(Oc2ccc(F)cc2F)CC1 [Example 253, 4-(4-(2,4-difluorophenoxy)piperidin-1-yl)-N-isopropyl-5-(2-methoxynicotinamido)picolinamide]	6.8
COc1cccc(C(=O)Nc2cc(C#N)ccc2N2CCC(Oc3ccc(F)cc3F)CC2)c1OC [Example 230]	7.1
N#Cc1ccc(N2CCC(Oc3ccc(F)cc3F)CC2)c(NC(=O)c2cc(C3CC3)on2)c1 [Example 125, N-(5-cyano-2-(4-(2,4-difluorophenoxy)piperidin-1-yl)phenyl)-5-cyclopropylisoxazole-3-carboxamide]	6.7
COc1ncccc1C(=O)Nc1cc(C#N)c(C#N)cc1N1CCC(Oc2ccc(F)cc2F)CC1 [Example 271]	7.1
CC(=O)n1ncc2ccc(NC(=O)c3ccccn3)c(N3CCC(Oc4ccc(F)cc4F)CC3)c21 [Example 76, N-(1-acetyl-7-(4-(2,4-difluorophenoxy)piperidin-1-yl)-1H-indazol-6-yl)picolinamide]	<5.7
COc1ncc(NC(=O)c2ccc(C)nc2OC)c(N2CCC(Oc3ccc(F)cc3F)CC2)n1 [Example 23, N-(4-(4-(2,4-difluorophenoxy)piperidin-1-yl)-2-methoxypyrimidin-5-yl)-2-methoxy-6-methylnicotinamide]	6.3
Cc1ccc(Cl)c(OC2CCN(c3ncc(C#N)cc3NC(=O)c3ccccn3)CC2)c1 [Example 68, N-(2-(4-(2-chloro-5-methylphenoxy)piperidin-1-yl)-5-cyanopyridin-3-yl)picolinamide]	6.6
COc1ccc(CN2CCN(c3ccc(C#N)cc3NC(=O)c3cccnc3OC)CC2)nc1 [Example 250, N-(5-cyano-2-(4-((5-methoxypyridin-2-yl)methyl)piperazin-1-yl)phenyl)-2-methoxynicotinamide]	6.0
N#Cc1ccc(N2CCC(Oc3ccc(F)cc3F)CC2)c(NC(=O)c2cnc3sccn3c2=O)c1 [Example 200, N-(5-cyano-2-(4-(2,4-difluorophenoxy)piperidin-1-yl)phenyl)-5-oxo-5H-thiazolo[3,2-a]pyrimidine-6-carboxamide]	6.9
CC(C)n1cccc(C(=O)Nc2cc(C#N)ccc2N2CCC(Oc3ccc(F)cc3F)CC2)c1=O [Example 181, N-(5-cyano-2-(4-(2,4-difluorophenoxy)piperidin-1-yl)phenyl)-1-isopropyl-2-oxo-1,2-dihydropyridine-3-carboxamide]	6.4
COc1ccc(Br)cc1C(=O)Nc1cc(C#N)ccc1N1CCC(Oc2ccc(F)cc2F)CC1 [Example 225, 5-bromo-N-(5-cyano-2-(4-(2,4-difluorophenoxy)piperidin-1-yl)phenyl)-2-methoxybenzamide]	6.4
COc1ccc(Cl)c(OC)c1C(=O)Nc1cc(C#N)ccc1N1CCC(Oc2ccc(F)cc2F)CC1 [Example 212, 3-chloro-N-(5-cyano-2-(4-(2,4-difluorophenoxy)piperidin-1-yl)phenyl)-2,6-dimethoxybenzamide]	<4.5
COc1cc(CN2CCN(c3ncc(C#N)cc3NC(=O)c3cn(C)nc3OC)CC2)ccc1F [Example 158, N-(5-cyano-2-(4-(4-fluoro-3-methoxybenzyl)piperazin-1-yl)pyridin-3-yl)-3-methoxy-1-methyl-1H-pyrazole-4-carboxamide]	6.3
COc1ncccc1C(=O)Nc1cc(C#N)ccc1N1CCN(Cc2ncc(F)cc2F)CC1 [Example 290]	6.5
Cn1cccc(C(=O)Nc2cc(C#N)ccc2N2CCC(C(F)(F)c3cc(F)ccc3F)CC2)c1=O [Example 88, N-(5-cyano-2-(4-((2,5-difluorophenyl)difluoromethyl)piperidin-1-yl)phenyl)-1-methyl-2-oxo-1,2-dihydropyridine-3-carboxamide]	6.4
COc1ccc(F)c(CN2CCN(c3ccc(C#N)cc3NC(=O)c3cccnc3OC)CC2)c1 [Example 242, N-(5-cyano-2-(4-(2-fluoro-5-methoxybenzyl)piperazin-1-yl)phenyl)-2-methoxynicotinamide]	6.8
